pIC50: −log10 of the molar value. ≈ marks a conversion by molar mass, not a printed value. Calls of active or inactive are those of the source. The rule behind the calls is not given here.
Experiments:
MCF7 [1] = test: Antiproliferative activity against human MCF7 cells after 3 days by MTT assay; type: functional, cell-based; conditions: MCF7, 72 h
HeLa = test: Antiproliferative activity against human HeLa cells after 3 days by MTT assay; type: functional, cell-based; conditions: 72 h
Bel-7402 = test: Antiproliferative activity against human Bel7402 cells after 3 days by MTT assay; type: functional, cell-based; conditions: Bel-7402, 72 h
MCF7 [2] = test: Ratio of IC50 for cisplatin to compound IC50 for human MCF7 cells after 3 days by MTT assay; type: functional
MCF7 [3] = test: Selectivity ratio of IC50 for human HeLa cells to IC50 for human MCF7 cells; type: functional
MCF7 [4] = test: Selectivity ratio of IC50 for human […] cells to IC50 for human MCF7 cells; type: functional
MCF7 [5] = test: Cell cycle arrest in human MCF7 cells assessed as accumulation at subG1 phase at 10 uM after 24 hrs by propidium iodide staining-based flow cytometric analysis (reference value: 4.11%); type: functional
MCF7 [6] = test: Cell cycle arrest in human MCF7 cells assessed as accumulation at G0/G1 phase at 10 uM after 24 hrs by propidium iodide staining-based flow cytometric analysis (reference value: 60.01%); type: functional
MCF7 [7] = test: Cell cycle arrest in human MCF7 cells assessed as accumulation at S phase at 10 uM after 24 hrs by propidium iodide staining-based flow cytometric analysis (reference value: 14.35%); type: functional
MCF7 [8] = test: Cell cycle arrest in human MCF7 cells assessed as accumulation at G2/M phase at 10 uM after 24 hrs by propidium iodide staining-based flow cytometric analysis (reference value: 20.62%); type: functional
MCF7 [9] = test: Cell cycle arrest in human MCF7 cells assessed as accumulation at subG1 phase at 10 uM after 48 hrs by propidium iodide staining-based flow cytometric analysis (reference value: 4.11%); type: functional
MCF7 [10] = test: Cell cycle arrest in human MCF7 cells assessed as accumulation at G0/G1 phase at 10 uM after 48 hrs by propidium iodide staining-based flow cytometric analysis (reference value: 60.01%); type: functional
MCF7 [11] = test: Cell cycle arrest in human MCF7 cells assessed as accumulation at S phase at 10 uM after 48 hrs by propidium iodide staining-based flow cytometric analysis (reference value: 14.35%); type: functional
MCF7 [12] = test: Cell cycle arrest in human MCF7 cells assessed as accumulation at G2/M phase at 10 uM after 48 hrs by propidium iodide staining-based flow cytometric analysis (reference value: 20.62%); type: functional
MCF7 [13] = test: Cell cycle arrest in human MCF7 cells assessed as accumulation at subG1 phase at 10 uM after 72 hrs by propidium iodide staining-based flow cytometric analysis (reference value: 4.11%); type: functional
MCF7 [14] = test: Cell cycle arrest in human MCF7 cells assessed as accumulation at G0/G1 phase at 10 uM after 72 hrs by propidium iodide staining-based flow cytometric analysis (reference value: 60.01%); type: functional
MCF7 [15] = test: Cell cycle arrest in human MCF7 cells assessed as accumulation at S phase at 10 uM after 72 hrs by propidium iodide staining-based flow cytometric analysis (reference value: 14.35%); type: functional
MCF7 [16] = test: Cell cycle arrest in human MCF7 cells assessed as accumulation at G2/M phase at 10 uM after 72 hrs by propidium iodide staining-based flow cytometric analysis (reference value: 20.62%); type: functional
MCF7 [17] = test: Induction of autophagy in human MCF7 cells assessed as increase in cytoplasmic acidic vesicular organelles at 5 to 10 uM after 72 hrs by AO staining-based fluorescence microscopic analysis; type: functional, cell-based
MCF7 [18] = test: Induction of autophagy in human MCF7 cells assessed as increase in cytoplasmic acidic vesicular organelles at 5 to 10 uM after 72 hrs by MDC staining-based fluorescence microscopic analysis; type: functional, cell-based
MCF7 [19] = test: Induction of autophagy in human MCF7 cells assessed as autophagic cells at 5 uM after 72 hrs by MDC staining-based flow cytometry (reference value: 2.14%); type: functional
MCF7 [20] = test: Induction of autophagy in human MCF7 cells assessed as autophagic cells at 10 uM after 72 hrs by MDC staining-based flow cytometry (reference value: 2.14%); type: functional
MCF7 [21] = test: Induction of autophagy in human MCF7 cells assessed as decrease in LC3-1 level at 5 to 10 uM after 48 hrs by Western blot analysis; type: functional, cell-based
MCF7 [22] = test: Induction of autophagy in human MCF7 cells assessed as increase in […] level at 5 to 10 uM after 48 hrs by Western blot analysis; type: functional, cell-based
[23] = Thermodynamic solubility of the compound in phosphate buffer at pH 7.4 at 1 mg after 10 mins by HPLC -UV analysis; type: physicochemical; conditions: read-out: Therm_solubility

In the case of O=C(Cc1ccccc1OCc1ccccc1)N[C@H](Cc1ccccc1)C(=O)OC[C@@H](Cc1ccccc1)NC(=O)c1ccccc1, the pIC50 (MCF7 [1]) was 5.22, the pIC50 (HeLa) was 4.57 and the pIC50 (Bel-7402) was 4.49. For the same compound, the “Ratio IC50” value (MCF7 [2]) was 1.5, the “Ratio IC50” value (MCF7 [3]) was 5 and the “Ratio IC50” value (MCF7 [4]) was 5. It also gave an Activity (MCF7 [5]) of 1.76%, an Activity (MCF7 [6]) of 59.85% and an Activity (MCF7 [7]) of 15.98%. For the same compound, the Activity (MCF7 [8]) was 21.65%, the Activity (MCF7 [9]) was 3.16% and the Activity (MCF7 [10]) was 59.4%. For the same compound, the Activity (MCF7 [11]) was 17.85%, the Activity (MCF7 [12]) was 17.07% and the Activity (MCF7 [13]) was 2.83%. It also gave an Activity (MCF7 [14]) of 57.08%, an Activity (MCF7 [15]) of 16.69% and an Activity (MCF7 [16]) of 20.38%. The Activity (MCF7 [17]) was “Active”, the Activity (MCF7 [18]) was “Active” and the Activity (MCF7 [19]) was 15.62%. For the same compound, the Activity (MCF7 [20]) was 52.62%, the Activity (MCF7 [21]) was “Active” and the Activity (MCF7 [22]) was “Active”. For the same compound, the solubility thermodynamic at 10 min [23] was 223 µg/mL (≈ 356 µM).

From ChEMBL document CHEMBL1955745, “Synthesis and in vitro antitumor activity of asperphenamate derivatives as autophagy inducer” (Bioorg Med Chem Lett, 2012)
